Measurements from patent EP0089926A2, “Pharmaceutical preparations of tetracycles containing nitrogen, and compounds of this type” (CIBA-GEIGY AG, priority 1982, dated 1983).

Tested on: Mäuse
Test: Step-down platform passive avoidance test, direct measurement of improvement of memory performance
Assay type: in vivo
Settings: male mice, 1 mg/kg i.p. within 10 seconds after foot shock, time on platform 24 hours later versus solvent controls
Description: Zur unmittelbaren […]: • Die Testvorrichtung besteht aus […] normal beleuchteten Box (50 […]äbe (6 mm Durchmesser) in einem Abstand von jeweils 13 mm angeordnet sind. In […] Gitterrostes ist eine hölzerne Plattform (10 mm Höhe, 67 mm Durchmesser) angebracht, welche von […] hoch, 68 mm […]. Zur Durchführung des Trainings werden Gruppen von jeweils 30 männlichen Mäusen (20 - 25 g) verwendet, indem jeweils ein Tier auf die von […] die […] und die Zeitdauer gemessen wird, welche das Tier zum Hinabsteigen und Berühren des Gitterrostes mit allen 4 Pfoten benö[…] von 10 Sekunden nach Verabreichung des Fussschocks werden die Testsubstanzen in Dosen von 0,1 mg/kg, 1 mg/kg und 10 mg/kg (für jede Dosis werden 30 Mäuse verwendet) je nach Löslichkeit als Lösung in physiologischer NaCl-Lösung oder einer 0,5%-igen Lösung von Methylcellulose in Wasser intraperitoneal verabreicht.

SMILES	Verbesserung der Gedächtnisleistung
CCC1(CCC(=O)OC)CCN2CCc3c([nH]c4ccccc34)C21 (racemic) [cis-1-Aethyl-2,3,5,6,11,11b-hexahydro-1H-indolizino[8,7-b]indol-1-propionsäuremethylester]	eine Verbesserung der Gedächtnisleistung
CCC1(CC(O)C(=O)OC)CCN2CCc3c([nH]c4ccccc34)C21 (racemic) [erythro-cis-a-Hydroxy-1-äthyl-2,3,5,6,11,11b-hexahydro-1H-indolizino[8,7-b]indol-1-propionsäuremethylester]	eine Verbesserung der Gedächtnisleistung
